Measurements taken from ChEMBL document CHEMBL1123233, “Preparation and analgesic activity of (-)-11 alpha-substituted 1,2,3,4,5,6-hexahydro-6 alpha,7-(methyleneoxy)-2,6-methano-3-benzazocines” (J Med Chem, 1986).
Calls of active or inactive are those of the source. The calls are words filed in the database; no cut-off is given here.

Assays:
Mus musculus [1] = experiment: Compound was tested for its analgesic activity in mouse hotplate assay at 20 mg/kg; Inactive; format: functional, organism-based; design: dose 20 mg/kg
Mus musculus [2] = species on record: Mus musculus; experiment: Compound was tested in mouse tail-flick analgesic antagonist assay vs morphine; format: functional
Mus musculus [3] = experiment: Compound was tested in mouse tail-flick antinociceptive assay at 30 mg/kg; Inactive; format: functional, organism-based; design: dose 30 mg/kg
Mus musculus [4] = species on record: Mus musculus; experiment: Compound was tested for its analgesic activity in mouse hotplate assay; format: functional
Mus musculus [5] = experiment: Compound was tested in mouse tail-flick analgesic antagonist assay vs morphine at 30 mg/kg; Inactive; format: functional, organism-based; design: dose 30 mg/kg
Mus musculus [6] = species on record: Mus musculus; experiment: Compound was tested in mouse tail-flick antinociceptive assay; format: functional
Mus musculus [7] = species on record: Mus musculus; experiment: Compound was tested in phenylquinone antinociceptive assay; format: functional
Mus musculus [8] = experiment: Compound was tested in mouse tail-flick analgesic antagonist assay vs morphine at 30 mg/kg; format: functional
Mus musculus [9] = experiment: Compound was tested in mouse tail-flick antinociceptive assay at 10 mg/kg; Inactive; format: functional, organism-based; design: dose 10 mg/kg
Mus musculus [10] = species on record: Mus musculus; experiment: Compound was evaluated for analgesic response in the mouse vas deferens assay in the presence of naltrexone. (max response […]); format: functional, organism-based
Mus musculus [11] = species on record: Mus musculus; experiment: The compound was evaluated for analgesic response in the mouse vas deferens assay (max response 80.6+/-4.0%); format: functional, organism-based
Mus musculus [12] = species on record: Mus musculus; experiment: Compound was tested in mouse tail-flick antinociceptive assay.; format: functional
Mus musculus [13] = species on record: Mus musculus; experiment: Compound was tested in phenylquinone antinociceptive assay.; format: functional
Mus musculus [14] = species on record: Mus musculus; experiment: Compound was evaluated for antagonism in the mouse vas deferens assay in the presence of morphine at 10E-6 M; Inactive; format: functional, organism-based
Mus musculus [15] = species on record: Mus musculus; experiment: Compound was evaluated for analgesic response in the mouse vas deferens assay at 10E-5 M; Inactive; format: functional, organism-based
Mus musculus [16] = species on record: Mus musculus; experiment: Compound was evaluated for antagonism in the mouse vas deferens assay at 10E-6 M; Inactive; format: functional, organism-based
Mus musculus [17] = species on record: Mus musculus; experiment: Compound was evaluated for analgesic response in the mouse vas deferens assay (max response 77.1+/-8.0%); format: functional, organism-based
Mus musculus [18] = species on record: Mus musculus; experiment: Compound was evaluated for analgesic response in the mouse vas deferens assay in the presence of naltrexone. (max response 43.4+/-8.1%); format: functional, organism-based
Mus musculus [19] = experiment: Compound was tested for its analgesic activity in mouse hotplate assay at 50 mg/kg; Inactive; format: functional, organism-based; design: dose 50 mg/kg

| Structure (SMILES) | ED50 (Mus musculus [1]) | ED50 (Mus musculus [4]) [mg/kg] | AD50 (Mus musculus [5]) | ED50 (Mus musculus [6]) [mg/kg] | ED50 (Mus musculus [7]) [mg/kg] | other results |
| --- | --- | --- | --- | --- | --- | --- |
| C=CCN1CC[C@]23COc4c(O)ccc(c42)CC1[C@@H]3CCC | inactive | – | – | – | – | AD50 (Mus musculus [2]): 0.4 mg/kg; ED50 (Mus musculus [3]): inactive |
| CCC[C@H]1C2Cc3ccc(O)c4c3[C@]1(CCN2CCc1ccccc1)CO4 | – | 1.7 | inactive | 1.4 | 0.2 | – |
| C=CCN1CC[C@]23c4c5ccc(O)c4O[C@H]2C(=O)CC[C@@]3(O)[C@H]1C5.Cl [NALOXONE HYDROCHLORIDE] | – | – | – | – | – | AD50 (Mus musculus [8]): 0.035 mg/kg |
| CCC[C@H]1C2Cc3cccc4c3[C@]1(CCN2C)CO4 | inactive | – | inactive | 20.7 | 2.9 | – |
| COc1ccc2c3c1OC[C@@]31CCN(C)C(C2)[C@@H]1CCCO | inactive | – | inactive | – | – | ED50 (Mus musculus [9]): inactive |
| CCC[C@H]1C2Cc3ccc(OC(C)=O)c4c3[C@]1(CCN2C)CO4 | – | – | inactive | – | – | EC50 (Mus musculus [10]): 0.422 µM; EC50 (Mus musculus [11]): 0.0852 µM; ED50 (Mus musculus [12]): 0.7 mg/kg; ED50 (Mus musculus [13]): 0.2 mg/kg; ED50 (Mus musculus [14]): inactive |
| CCC[C@H]1C2Cc3ccc(OC)c4c3[C@]1(CCN2C)CO4 | inactive | – | inactive | 8.1 | 0.8 | EC50 (Mus musculus [15]): Not Active; EC50 (Mus musculus [16]): Not Active |
| CCC[C@H]1C2Cc3ccc(O)c4c3[C@]1(CCN2C)CO4 | – | 1.8 | inactive | 0.4 | 0.1 | EC50 (Mus musculus [17]): 0.35 µM; EC50 (Mus musculus [18]): 3.32 µM; ED50 (Mus musculus [14]): inactive |
| CCOC(=O)CC[C@H]1C2Cc3ccc(OC)c4c3[C@]1(CCN2C)CO4 | – | – | inactive | – | – | ED50 (Mus musculus [19]): inactive; ED50 (Mus musculus [3]): inactive |
| CN1CC[C@]23c4c5ccc(O)c4O[C@H]2[C@@H](O)C=C[C@H]3[C@H]1C5.CN1CC[C@]23c4c5ccc(O)c4O[C@H]2[C@@H](O)C=C[C@H]3[C@H]1C5.O=S(=O)(O)O | – | 1.2 | – | – | – | – |
| COc1ccc2c3c1O[C@H]1[C@@H](O)C=C[C@H]4[C@@H](C2)N(C)CC[C@@]341.COc1ccc2c3c1O[C@H]1[C@@H](O)C=C[C@H]4[C@@H](C2)N(C)CC[C@@]341.O.O=P(O)(O)O.O=P(O)(O)O [CODEINE PHOSPHATE] | – | 9.3 | inactive | – | – | ED50 (Mus musculus [12]): 14.5 mg/kg; ED50 (Mus musculus [13]): 1.1 mg/kg |
